Here are results for 22 compounds from PubChem BioAssay AID330 (DTP/NCI, 2004).

The experiment has as its system P388 leukemia ip, CD2F1 mice, survival T/C. As to the kind of experiment: NCI In Vivo Anticancer Drug Screen. Data for tumor model P388 Leukemia (intraperitoneal) in CD2F1 (CDF1) mice. The note with it: endpoint: median survival time, higher = longer survival. In outline:
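Mice carrying the transplanted tumor received test compound or vehicle. Survival was recorded in each group, and the value is the treated-group measurement divided by that of the vehicle-treated control group.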

The mark [1] stands for this setting: dose: 50.0 mg/kg/injection, schedule: Q01DX005 (ip), vehicle: Klucel (hydroxypropylcellulose) (HPC).
Where [2] appears, read: dose: 100.0 mg/kg/injection, schedule: Q01DX005 (ip), vehicle: Klucel (hydroxypropylcellulose) (HPC).
The mark [3] stands for this setting: dose: 25.0 mg/kg/injection, schedule: Q01DX009 (ip), vehicle: saline with Tween-80.
[4] abbreviates: dose: 50.0 mg/kg/injection, schedule: Q01DX009 (ip), vehicle: saline with Tween-80.
The mark [5] stands for this setting: dose: 200.0 mg/kg/injection, schedule: Q01DX009 (ip), vehicle: saline with Tween-80.
[6] abbreviates: dose: 60.0 mg/kg/injection, schedule: Q01DX005 (ip), vehicle: saline.
Where [7] appears, read: dose: 120.0 mg/kg/injection, schedule: Q01DX005 (ip), vehicle: saline.
Setting [8] is: dose: 240.0 mg/kg/injection, schedule: Q01DX005 (ip), vehicle: saline.
The mark [9] stands for this setting: dose: 60.0 mg/kg/injection, schedule: Q01DX005 (ip), vehicle: saline with Tween-80.
Where [10] appears, read: dose: 120.0 mg/kg/injection, schedule: Q01DX005 (ip), vehicle: saline with Tween-80.
Where [11] appears, read: dose: 50.0 mg/kg/injection, schedule: Q01DX009 (ip), vehicle: Klucel (hydroxypropylcellulose) (HPC).
Setting [12] is: dose: 200.0 mg/kg/injection, schedule: Q01DX005 (ip), vehicle: Klucel (hydroxypropylcellulose) (HPC).

“And” between values parts separate entries of the source, which are not always exact repeats. Equal values may be shown once. Inconclusive results and toxic doses are left out.

Turning to `CC(NC(=O)c1ccc(C(C[N+](=O)[O-])SCCC(=O)O)cc1)C(=O)O` (stereo unspecified), the T/C (dose: 60.0 mg/kg/injection, schedule: Q01DX005 (ip), vehicle: saline + Tween-80 + alcohol) is 98 % of control; the T/C (dose: 120.0 mg/kg/injection, schedule: Q01DX005 (ip), vehicle: saline + Tween-80 + alcohol) was 99 % of control; the T/C (dose: 240.0 mg/kg/injection, schedule: Q01DX005 (ip), vehicle: saline + Tween-80 + alcohol) was 107 % of control.

Take `CC1CCC(C(C)C)C(OC(=O)c2cc[n+](C)cc2)C1` (stereo unspecified): the T/C is 107 % of control under setting [1] and 98 % of control under setting [2].

In the case of `CN(Cc1ccc2nc(N)[nH]c(=O)c2c1)c1ccc(C(=O)NC(CCC(=O)O)C(=O)O)cc1` (stereo unspecified), the T/C by setting is: (dose: 50.0 mg/kg/injection, schedule: Q01DX005 (ip), vehicle: saline with Tween-80) 95 % of control; (dose: 100.0 mg/kg/injection, schedule: Q01DX005 (ip), vehicle: saline with Tween-80) 102 % of control.

`O=C1C(=O)c2ccccc2-c2ccccc21`: the T/C was 104 % of control (dose: 6.25 mg/kg/injection, schedule: Q01DX009 (ip), vehicle: saline with Tween-80); 104 % of control (dose: 12.5 mg/kg/injection, schedule: Q01DX009 (ip), vehicle: saline with Tween-80); 108 % of control under setting [3]; 100 % of control under setting [4].

Regarding `CCP(=S)(CC)[S][Sn]([CH3])([CH3])[S]P(=S)(CC)CC`, the T/C by setting is: under setting [1], 118 % of control; under setting [2], 115 % of control.

For the compound `CC(C)(O)Cc1ccc(Cl)cc1`, the T/C was 99 % of control under setting [3]; 105 % of control under setting [4]; 108 % of control (dose: 100.0 mg/kg/injection, schedule: Q01DX009 (ip), vehicle: saline with Tween-80); 105 % of control under setting [5].

Turning to `COc1cc2c(c(OC)c1OC)-c1ccc(N)c(=O)cc1[C@@H](NC(C)=O)CC2`, the T/C (dose: 0.5 mg/kg/injection, schedule: Q01DX010 (ip), vehicle: saline) is 109 % of control; the T/C (dose: 1.0 mg/kg/injection, schedule: Q01DX010 (ip), vehicle: saline) is 118 % of control; the T/C (dose: 3.12 mg/kg/injection, schedule: Q01DX009 (ip), vehicle: Klucel (hydroxypropylcellulose) (HPC)) is 86 % of control; the T/C (dose: 6.25 mg/kg/injection, schedule: Q01DX009 (ip), vehicle: Klucel (hydroxypropylcellulose) (HPC)) is 108 % of control.

Take `Cc1nn(CCO)c(C)c1N=[N+]([O-])c1c(C)nn(CCO)c1C`: the T/C reads like this: (dose: 10.0 mg/kg/injection, schedule: Q01DX009 (ip), vehicle: suspension in saline) 114 % of control; (dose: 20.0 mg/kg/injection, schedule: Q01DX009 (ip), vehicle: suspension in saline) 120 % of control; (dose: 25.0 mg/kg/injection, schedule: Q04DX003 (ip), vehicle: Klucel (hydroxypropylcellulose) (HPC)) 111 % of control and 116 % of control; (dose: 30.0 mg/kg/injection, schedule: Q01DX009 (ip), vehicle: suspension in saline) 116 % of control; (dose: 50.0 mg/kg/injection, schedule: Q04DX003 (ip), vehicle: Klucel (hydroxypropylcellulose) (HPC)) 115 % of control and 122 % of control; (dose: 60.0 mg/kg/injection, schedule: Q01DX009 (ip), vehicle: suspension in saline) 120 % of control. The T/C (dose: 100.0 mg/kg/injection, schedule: Q04DX003 (ip), vehicle: Klucel (hydroxypropylcellulose) (HPC)) was 114 % of control and 96 % of control.

`CCOc1ccc(/C=N/NC(=O)c2ccc(O)c(OC)c2)cc1OC`: the T/C under setting [6] is 100 % of control, the T/C under setting [7] was 102 % of control and the T/C under setting [8] was 95 % of control.

For `CN(C)c1ccc(C(=O)C2(Cl)CCCCC2)cc1`, the T/C is 97 % of control (dose: 100.0 mg/kg/injection, schedule: Q01DX001 (ip), vehicle: Klucel (hydroxypropylcellulose) (HPC)); 100 % of control (dose: 200.0 mg/kg/injection, schedule: Q01DX001 (ip), vehicle: Klucel (hydroxypropylcellulose) (HPC)); 96 % of control (dose: 400.0 mg/kg/injection, schedule: Q01DX001 (ip), vehicle: Klucel (hydroxypropylcellulose) (HPC)).

Turning to `CCCCCC(N)C(C)=O` (stereo unspecified), the T/C is, setting by setting: (dose: 12.5 mg/kg/injection, schedule: Q01DX009 (ip), vehicle: saline) 110 % of control; (dose: 25.0 mg/kg/injection, schedule: Q01DX009 (ip), vehicle: saline) 106 % of control; under setting [4], 106 % of control and 97 % of control; (dose: 50.0 mg/kg/injection, schedule: Q01DX009 (ip), vehicle: saline) 105 % of control; under setting [5], 187 % of control; (dose: 400.0 mg/kg/injection, schedule: Q01DX009 (ip), vehicle: saline with Tween-80) 187 % of control.

For `CCOC(=O)/C(C#N)=C/Nc1ccc(Cl)nc1Cl`, the T/C is 89 % of control under setting [9] and 86 % of control under setting [10].

As to `CC(C)(C)C(=O)/C=C/c1ccc(Cl)c(Cl)c1`, the T/C under setting [11] is 104 % of control; the T/C (dose: 100.0 mg/kg/injection, schedule: Q01DX009 (ip), vehicle: Klucel (hydroxypropylcellulose) (HPC)) was 107 % of control; the T/C (dose: 200.0 mg/kg/injection, schedule: Q01DX009 (ip), vehicle: Klucel (hydroxypropylcellulose) (HPC)) was 99 % of control.

`O=C(O)CCOc1cccc(OCCC(=O)O)c1`: the T/C by setting is: under setting [1], 102 % of control; under setting [2], 98 % of control; under setting [12], 99 % of control.

With `C[As](C)SCCC(CCCCC(=O)O)S[As](C)C` (stereo unspecified), the T/C is 109 % of control and 111 % of control (dose: 12.5 mg/kg/injection, schedule: Q01DX009 (ip), vehicle: Klucel (hydroxypropylcellulose) (HPC)); 122 % of control (dose: 25.0 mg/kg/injection, schedule: Q01DX009 (ip), vehicle: Klucel (hydroxypropylcellulose) (HPC)); 106 % of control (dose: 25.0 mg/kg/injection, schedule: Q04DX003 (ip), vehicle: saline with Tween-80); 100 % of control under setting [11]; 97 % of control (dose: 50.0 mg/kg/injection, schedule: Q04DX003 (ip), vehicle: saline with Tween-80); 108 % of control (dose: 100.0 mg/kg/injection, schedule: Q04DX003 (ip), vehicle: saline with Tween-80).

On to `c1ccc(C2NCCc3ccccc32)cc1` (stereo unspecified), for which the T/C was 97 % of control under setting [1], 105 % of control under setting [2] and 100 % of control under setting [12].

Consider `COC(=O)c1nc2[nH]n(-c3ccccc3)c(=O)c2c2c1CCCCCCCCCC2`, for which the T/C runs as follows: under setting [6], 102 % of control; under setting [7], 96 % of control; under setting [8], 96 % of control.

Take `CC(C)(C)OC(=O)NC(CC(=O)OCc1ccccc1)C(=O)ON1C(=O)CCC1=O` (stereo unspecified): the T/C under setting [1] is 106 % of control, the T/C under setting [2] was 106 % of control and the T/C under setting [12] was 97 % of control.

For `CCOC(=O)c1ccc(NN=NC(C)(C)C)cc1`, the T/C is, setting by setting: (dose: 12.5 mg/kg/injection, schedule: Q01DX009 (ip), vehicle: distilled water + Tween-80) 91 % of control; (dose: 25.0 mg/kg/injection, schedule: Q01DX009 (ip), vehicle: distilled water + Tween-80) 93 % of control; (dose: 50.0 mg/kg/injection, schedule: Q01DX009 (ip), vehicle: distilled water + Tween-80) 86 % of control; (dose: 100.0 mg/kg/injection, schedule: Q01DX009 (ip), vehicle: distilled water + Tween-80) 93 % of control; (dose: 200.0 mg/kg/injection, schedule: Q01DX009 (ip), vehicle: distilled water + Tween-80) 86 % of control.

Turning to `CC(C)c1ccc(C(Cc2ccccc2)N(CCO)CCO)cc1` (stereo unspecified), the T/C by setting is: (dose: 12.5 mg/kg/injection, schedule: Q01DX005 (ip), vehicle: Klucel (hydroxypropylcellulose) (HPC)) 105 % of control; (dose: 25.0 mg/kg/injection, schedule: Q01DX005 (ip), vehicle: Klucel (hydroxypropylcellulose) (HPC)) 104 % of control; under setting [1], 99 % of control and 91 % of control.

For the compound `Cc1ccc(-c2c(C)c3c(c(C)c2-c2ccc(C)cc2)-c2ccccc2C3=O)cc1`, the T/C is, setting by setting: (dose: 100.0 mg/kg/injection, schedule: Q04DX002 (ip), vehicle: saline) 100 % of control; (dose: 200.0 mg/kg/injection, schedule: Q04DX002 (ip), vehicle: saline) 95 % of control.

In the case of `CCN(CC)OC(=O)/C=C/c1ccccc1`, the T/C runs as follows: (dose: 30.0 mg/kg/injection, schedule: Q01DX005 (ip), vehicle: saline with Tween-80) 95 % of control; under setting [9], 98 % of control and 93 % of control; under setting [10], 86 % of control.
